Data: publication PMC8406319, “The dCache Chemoreceptor TlpA of Helicobacter pylori Binds Multiple Attractant and Antagonistic Ligands via Distinct Sites” (mBio, 2021)
Structures can show the parent of a compound that is named as a salt.

Tested on: H. pylori PMSS1 WT
Assay: Ligand competition tracking (chemotaxis) assay
Assay type: cell-based, Helicobacter pylori
Conditions: 10 mM each; added before or after the chemoattractant
Experimental: Consequently, we tested whether glucosamine affected H. pylori chemotaxis by developing a ligand competition tracking assay between non-chemotaxis-active and chemotaxis-active TlpA ligands. This assay is a modified version of our live-cell video microscopy assay where the addition of a chemotaxis-active ligand is followed by the addition of a non-chemotaxis-active ligand 10 s later and vice versa. […] This response was decreased regardless of whether glucosamine was added before or after the addition of the chemoattractant.
FIG 7 Ligand competition tracking experiment between chemoactive and nonchemoactive TlpA ligands. Cultures of the H. pylori PMSS1 WT were grown in BB10 overnight and then back-diluted as described in the legend of Fig. 1. Cultures were mock treated or treated with various concentrations of compounds as indicated. The pH of the cysteine stock was adjusted using NaOH to match the pH of the water used for the untreated control. The cells were immediately filmed, and direction changes were counted over a 3-s swimming period in at least 100 cells per treatment from 3 biological replicates. Repellents increase direction changes, as exemplified by the control repellent HCl, while attractants decrease direction changes, as exemplified by the control attractant dipyridyl. Data are normalized to the values for the untreated control for each strain, as described in Materials and Methods. […]
Swimming behavior assays were done with H. pylori PMSS1 strains grown in BB10 as described above. […] The pH of BB10 upon treatment was independently assessed using a Denver Instruments pH meter. […] For each sample, >100 3-s-long bacterial tracks from three independent cultures were analyzed manually to identify stops followed by direction changes. Data for all biological replicates under each condition were combined, and the average number of direction changes in 3 s and the standard error of the mean were calculated. […]

N[C@H]1C(O)O[C@H](CO)[C@@H](O)[C@@H]1O (stereo partly drawn) [Glucosamine, D(+)-glucosamine hydrochloride]
Effect on chemoattractant response to arginine: prevented the chemoattractant response | Effect on chemoattractant response to cysteine: severely blunted the response | Effect on chemoattractant response to fumarate: prevented the chemoattractant response
